From patent US7973062B2, “Androgen receptor-ablative agents” (The Ohio State University Research Foundation, priority 2008, dated 2011)
pIC50: −log10 of the molar value. Like-named read-outs stand apart in the source and are kept apart here.

Experiments:
Format in all cases: cell-based
androgen receptor (AR) = experiment: Immunocytochemical analysis of AR in LNCaP cells; conditions: 5 μM, 48 h
Method: Immunocytochemical Analysis. Cells were seeded onto coverslips in six-well plates (2.5×10^5 cells/well) for 24 h followed by exposure to 5 μM compound 12 for an additional 48 h. After extensive washing with PBS, cells were fixed and permeabilized with PBS containing 0.1% Triton X-100 for 1 h, and then incubated with anti-AR (1:100 dilution) in PBS containing 0.1% Triton X-100, 0.2% bovine serum albumin, 0.5 mM PMSF, and 1 mM DTT at room temperature for 12 h followed by Alexa Fluor 488-conjugated goat anti-mouse IgG (1:100; Molecular Probes) for 2 h. Nuclear counterstaining was performed by mounting with 4,6-diamidino-2-phenylindole (DAPI)-containing medium. Images of immunocytochemically labeled samples were observed using a Nikon microscope (Eclipse TE300).

[1] = test system: PC-3 androgen-nonresponsive prostate cancer cells; experiment: MTT cell viability assay, PC-3 cells; conditions: Homo sapiens, 5% FBS, read-out: IC50 for suppressing cell viability
Method: (§1) Cell Counting and Cell Viability Assay. LNCaP or PC-3 cells were placed in six-well plates (2.5×10^5 cells/well) in 10% FBS-supplemented RPMI 1640 for 24 h, and treated with various concentrations of compound 12 for additional 24, 48 and 72 h. Cells were then trypsinized and counted by using a Coulter counter (Model Z1 D/T, Beckman Coulter, Fullerton, Calif.). Cell viability was assessed by using the 3-(4,5-dimethylthiazol-2-yl)-2,5-diphenyl-2H-tetrazolium bromide (MTT) assay in six replicates in 96-well plates. LNCaP or PC-3 cells were seeded at 6000 cells per well in 10% FBS-supplemented RPMI 1640 for 24 h, followed by treatments with various compounds in 5% FBS-supplemented RPMI 1640 at the indicated concentrations. Controls received DMSO at a concentration equal to that in drug-treated cells. After the end of incubation, MTT (0.5 mg/ml) in 10% FBS-supplemented RPMI 1640 was added to each well, and cells were incubated at 37° C. for 2 hours. Medium was removed and the reduced MTT dye was solubilized in DMSO (200 μl/well). Absorbance was determined at 570 nm by a 96-well plate reader.

PPARγ = biological target: T1, PPARγ (Homo sapiens, UniProt P37231); experiment: PPRE-luciferase reporter assay (PPRE-x3-TK-Luc) in PC-3 cells; conditions: PC-3 cells transfected with PPRE-x3-TK-Luc
T1 construct: In PC-3 cells transfected with a reporter construct (PPRE-x3-TK-Luc); endogenous in cells; host or cells: PC-3
T1 sequence (P37231 1-505): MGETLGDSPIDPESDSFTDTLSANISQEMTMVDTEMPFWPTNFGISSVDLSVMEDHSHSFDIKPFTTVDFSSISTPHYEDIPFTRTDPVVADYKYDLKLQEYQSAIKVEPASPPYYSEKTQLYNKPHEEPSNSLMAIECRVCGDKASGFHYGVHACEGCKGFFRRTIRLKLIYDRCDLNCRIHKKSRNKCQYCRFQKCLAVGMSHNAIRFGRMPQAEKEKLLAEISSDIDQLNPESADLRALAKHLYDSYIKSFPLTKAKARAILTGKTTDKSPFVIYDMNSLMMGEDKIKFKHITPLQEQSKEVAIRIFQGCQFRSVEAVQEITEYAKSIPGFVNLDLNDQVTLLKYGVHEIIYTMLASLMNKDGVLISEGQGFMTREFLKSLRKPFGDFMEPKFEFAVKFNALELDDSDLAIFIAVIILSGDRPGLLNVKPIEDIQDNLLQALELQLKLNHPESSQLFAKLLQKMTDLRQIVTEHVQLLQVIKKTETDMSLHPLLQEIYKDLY
Description: Transfection and Luciferase assay. The 3.6-kilobase AR promoter-linked reporter plasmid p-3600ARCAT was kindly provided by Dr. Chawnshang Chang (University of Rochester Medical Center, Rochester, N.Y.). The AR promoter gene (−3600 to +550) encompassing the transcription start site was isolated by using PCR to generate hAR-luc with suitable primers. The fragment was subcloned into the pGL3 luciferase reporter vector (Promega, Madison, Wis.) at KpnI and BglII in the multiple cloning site. The PPRE-x3-TK-Luc reporter vector contains three copies of the PPAR-response element (PPRE) upstream of the thymidine kinase promoter-luciferase fusion gene and was kindly provided by Dr. Bruce Spiegelman (Harvard University, Cambridge, Mass.). The pCMVSp1 plasmid was purchased from Origene Technologies, Inc. (Rockville, Md.). LNCaP or PC3 cells were transfected with 5 μg of individual plasmids in an Amaxa Nucleofector using a cell line-specific nucleofector kit according to the manufacturer's protocol (Amaxa Biosystems, Cologne, Germany), and then seeded in 6-well plates at 5×10^5 cells per well for 48 h. […] For each transfection, herpes simplex virus thymidine kinase promoter-driven Renilla reniformis luciferase was used as an internal control for normalization.
Fifty-μl aliquots of the lysates were added to 96-well plates, and luciferase activity was monitored after adding 100 μl of luciferase substrate (Promega) each well by using a MicroLumatPlus LB96V luminometer (Berthold Technologies, Oak Ridge, Tenn.) with the WinGlow software package. All transfection experiments were carried out in six replicate.

[2] = test system: PARP cleavage, caspase 3 and caspase 7 activation; experiment: Western blot of apoptosis-related biomarkers in LNCaP cells; conditions: 72 h
LNCaP and PC-3 cells = experiment: Cell counting assay for cell proliferation, LNCaP versus PC-3; conditions: Coulter counter (FIG. 5B)
Method: as §1

## CC1(CN2C(=O)S/C(=C\c3ccc(O)c(C(F)(F)F)c3)C2=O)CCCCC1 [Compound 12, 5-(4-Hydroxy-3-trifluoromethyl-benzylidene)-3-(1-methyl-cyclohexylmethyl)-thiazolidine-2,4-dione]
Androgen receptor (AR)
  AR levels in the nucleus: substantial decrease in AR levels in the nucleus
[1]; 48 h
  pIC50: 4.82
[1]; 72 h
  pIC50: 4.92
PPARγ
  PPARγ activation (in words): lacked appreciable activity
[2]
  apoptosis-related biomarkers: PARP cleavage, proteolytic activation of caspase 3 and caspase 7: dose-dependent effects
LNCaP and PC-3 cells
  potency in inhibiting proliferation of LNCaP cells compared to PC-3 cells: at least twofold higher potency
